These results are taken from patent US20070184490A1, “Neuronal nicotinic receptor ligands and their use” (priority 2006, published 2007).

In one data set the test system is adults with ADHD. The experiment in a line: pilot study: computerized cognitive assessment battery. Type of data set: in vivo, human. As for the experimental part: Raters for the CAARS were trained and certified prior to the start of the study. Investigator-administered CAARS, CGI-ADHD-S, Hamilton Anxiety Scale (HAM-A) (Hamilton 1959), and Hamilton Depression Scale (HAM-D) (Hamilton 1960) were administered to subjects at baseline and at the completion of each treatment period (Days 14, 28, 42, and 56). CMRS, HAM-A, and HAM-D ratings were based on the previous seven days. After being trained, subjects completed a computerized cognitive assessment battery (Simpson et al 1989), which was amended to include the Conner's Continuous Performance Test (Conners 1995) and the Stroop Color Word Test (Jensen and Rohwer 1966), at baseline and at the completion of each treatment period. Attentional tasks (simple and choice reaction time, digit vigilance), selective attention (Conner's CPT), working memory tasks (numeric and spatial working memory, rapid visual information processing), episodic secondary memory (immediate and delayed word recall, word and picture recognition), motor control tasks (tracking), and executive function (the Stroop effect) were among the items assessed.
The primary efficacy endpoint was the CAARS total ADHD symptom score (sum of Inattention and Hyperactivity/Impulsivity scores) obtained on the last day of each treatment period. Treatment differences were assessed using an analysis of variance (ANOV A) model with fixed terms fitted for treatment, period, and sequence and a random effect for subjects-within-sequence. […] There were no corrections for multiple comparisons in this proof-of-concept study. Statistical tests of efficacy were one-sided; p-values ≦0.050 were considered statistically significant, and those between […] indicated a statistical trend.

A short description of data set [1]: pilot study: population PK plasma concentrations at steady state. Type of data set: in vivo, human. As for the experimental part:
Blood samples for pharmacokinetic analysis were taken at 0, 1, 2, 4, and 8 hours on Day 1 and at approximately 2 hours post-dose on the last day of each dosing period. The blood samples were immediately stored at 4° C. or below. The blood samples were centrifuged within one hour of collection using a refrigerated centrifuge to separate the plasma. The plasma samples were transferred using plastic pipettes into plastic vials. The plasma samples were frozen at −20° C. within one hour from centrifugation and remained frozen until shipped to Abbott Laboratories for analysis.
Due to limited pharmacokinetic sampling timepoints, trough and average concentrations were estimated using a non-linear mixed-effect pharmacokinetic modeling approach with NONMEM software Version V).

The structures appear in SMILES notation.

For `Cc1ncccc1OC[C@@H]1CCCN1` [ABT-089, 2-methyl-3-(2-(S)-pyrrolidinylmethoxy)pyridine], the figures for the “Continuous Performance Test Attentiveness” value in the data set with adults with ADHD (2 mg), with adults with ADHD (4 mg) and in the data set with adults with ADHD (20 mg) were 0.56±0.27, 0.68±0.27 and 0.69±0.27, respectively. This compound gave an information processing speed in the data set with adults with ADHD (20 mg) of 516.3±12.7. Also, in the data set on adults with ADHD (all ABT-089 dose levels), the “Continuous Performance Test number of commission errors” value is listed as “statistically significant improvement”. Also, the “measures of attention (reaction time, vigilance), episodic secondary memory, executive function (Stroop Effect) vs placebo” value in the data set with adults with ADHD (in vivo) was “no meaningful differences”. The entries for the “Cavg Mean (±SD), model-predicted, steady state” value in data set [1] (2 mg bid), in data set [1] (4 mg bid) and in data set [1] (20 mg bid) were 4.47 (1.05) ng/mL, 8.94 (2.09) ng/mL and 44.7 (10.46) ng/mL, respectively. Besides, the “Ctrough Mean (±SD), model-predicted, steady state” value is 1.85 (0.79) ng/mL in data set [1] (2 mg bid), 3.69 (1.59) ng/mL in data set [1] (4 mg bid) and 18.46 (7.95) ng/mL in data set [1] (20 mg bid).
